Values of other authors, collected in US20140178367A1, “Methods of Treating Inflammatory Diseases by Targeting the Chemoattractant Cytokine Receptor 2 (CCR2) or Chemokine (C-C motif) Ligand 2 (CCL2)” (THE Brigham and Women's Hospital, Inc., priority 2011, published 2014).

Tested on: patients with ALS

Question: For `Nc1nc2ccc(OC(F)(F)F)cc2s1` [riluzole], which prolongs life is on record?
Answer: only a few months
